Results as given in patent publication EP2767543B1, “SALTS OF CARBAMOYL PHOSPHONIC ACID ESTERS WHICH ACT AS SELECTIVE INHIBITORS OF HUMAN IMMUNODEFICIENCY VIRUS HIV-1 PRODUCTION” (Aktsionernoe Obshcestvo "Proizvodstvenno-Kommercheskaya …, priority 2011, dated 2013).

Assays:
MT-4 cells = assay: Cytotoxicity assessment in MT-4 cells (MTT / formazan method, 4 days); format: cell-based; settings: concentration that reduces MT-4 cell vitality by 50%, day 4, MTT
Experimental: Cytotoxicity of a drug is estimated by adding its delution in RPMI-1640 serum-free medium to MT-4 cell suspension placed in cavities of the 96-cavity board (Cel-Cult, England), up to the ultimate concentrations of 0.001-100 µg/ml (three cavities per dose), with subsequent cultivation at 37°C within 4 days. The inoculation concentration is 0.5x10^6 cell particles in 1 mm. The cells, to which the drug was not added and was substituted with the same quantity of the serum-free medium, serve as the reference. The cell vitality is counted on Day 4 of cultivation, using the formazan method (intravital staining of MTT cells). Toxicity of different drug doses is determined by the cell vitality as compared with the reference cells; the dose-dependent curve is built using obtained data, and the concentration that reduces cell vitality by 50% (CD50) is determined. […] It is also noteworthy that 50% toxic doses exceed HIV-1 effective doses by a factor of 2-4 (see Table 1) .

[1] = Stability analysis of 1% water solutions at room temperature; format: physicochemical; settings: within a month
Experimental: The stability analysis for the obtained compounds in the form of 1% water solutions at room temperature was carried out. The acid form of the carbamoyl phosphonate and ammonia salt degrade by 40% and 2%, respectively, within a month; no destruction products were detected for the rest of salts within a month.

HIV-1, GVK4046 = assay: HIV-1 reproduction inhibition in MT-4 cell culture (p24 ELISA and MTT cell vitality, day 4); format: cell-based; settings: HIV-1, GVK4046 in MT-4 cell culture, 4 days; read-out: ID50 (the source's name)
Experimental: The HIV inhibition study includes cultivation of primary infective MT-4 line lymphoid cells over the studied compounds, the ultimate concentrations of which in the culture medium range from 0.001 µg/ml to 100 µg/ml, during one passage, within 4 days.
HIV reproduction inhibition in the sensitive cell culture is determined by the reduction in p24 virus-specific protein accumulation (according to the enzyme-linked immunosorbent assay) and by the increase in cell vitality over the drug as compared with the reference cells, on Day 4 of the cultivation, using 3-(4.5-dimethylthiazole-2-yl-)-2,5-diphenyl tetrazolium (MTT) bromide staining.
The impact of the studied compounds on HIV-1 reproduction in MT-4 cell culture is studied using a well-known technique.

## Cc1cn([C@H]2C[C@H](N=[N+]=[N-])[C@@H](COP(=O)(O)C(N)=O)O2)c(=O)[nH]c1=O [Acid form (reference), [(2S,3S,5R)-3-azido-5-(5-methyl-2,4-deoxythymidine-1-yl)oxolan-2-yl]methyl ester of carbamoyl phosphonic acid, reference compound]
MT-4 cells
  CD50: 2.6 µM
[1]
  degrade: 40%
HIV-1, GVK4046
  IC50: 800 nM
